Holding throughout (format): cell-based, human
The test system of one assay is U−2 OS cells. The experiment in a line: RNA-seq differential gene expression. Particulars: DS−1 6.25 µM, 24 h. How it is done:
Sample preparation: U−2 OS cells were seeded in a 10 cm culture dish, and we cultured them to the logarithmic growth phase, suctioned the previous medium, and added new medium with DS−1 at 0 and 6.25 μM; each group was repeated two times. After 24 h of culture, the dish was washed with PBS reagent 3 times. One milliliter of TRIzol reagent was added to every dish for cell lysate and then collected in centrifuge tubes.
Transcriptome sequencing and analysis were carried out by Novogene Bioinformatics Technology Co., Ltd. (Beijing, China).
Raw data in the fastq format were firstly processed through in-house Perl scripts. In this step, clean data were obtained by removing reads containing adapter or containing ploy-N and low-quality reads from raw data. […]
Reference genome and gene model annotation files were downloaded from the genome website directly. The index of the reference genome was built using Hisat2 v2.0.5 (https://github.com/DaehwanKimLab/hisat2, accessed on 4 May 2022), and paired-end clean reads were aligned to the reference genome using Hisat2 v2.0.5. FeatureCounts v1.5.0-p3 (https://github.com/byee4/featureCounts, accessed on 4 May 2022) was used to count the reads numbers mapped to each gene. Then the Fragments PerKilobase of transcript sequence per Millions […] (FPKMs) of each gene were calculated based on the length of the gene and reads’ count mapped to this gene. […]

The test system of the next assay is pAKT. The experiment in a line: Western blot pAKT. The conditions noted are these: 24 h. As for the experimental part:
Sample preparation: U−2 OS cells seeded in 10 cm Petri dishes were collected and washed with ice-cold PBS and RIPA lysis buffer with PMAF; phosphatase inhibitor was added, and the tubes were placed on ice for 30 min and vortexed for 30 s at intervals of 10 min. The samples were centrifuged at 12,000 g at 4 °C for 15 min, and the supernatants were collected in new centrifuge tubes. The protein samples were placed on ice, and the concentration of each protein sample was measured by the BCA kit (Thermo). The protein concentration was adjusted to the same by milli Q ultrapure water.
Loading and running the gel: Equal amounts of protein were loaded into the wells of the 10% SDS-PAGE gel, along with molecular weight markers, and 15 μg of total protein from the cell lysate was loaded. We then ran the gel for 45 min at 200 V.
Transferring the protein: We prepared the transfer stack as follows: negative plate, sponge, filter paper, gel, PVDF membrane, filter paper, sponge, and positive plate. The transfer was for 90 min at 200 mA.
Antibody staining: We blocked the membrane for 1 h at room temperature using 5% blocking solution, then incubated the membrane with appropriate dilutions of the primary antibody in the blocking solution overnight at 4 °C. We then washed the membrane with TBST reagent 3 times, 5 min each. Then, we incubated the membrane with the recommended dilution of labeled secondary antibody in blocking solution at room temperature for 1 h and washed the membrane with TBST reagent 3 times, 5 min each. For signal development, super-enhanced chemiluminescence detection reagents were added to the surface of the membrane for 1 min, then excess reagent was removed, and the membrane was covered in transparent plastic wrap. Images were acquired using darkroom development techniques for chemiluminescence and analyzed by Image J.

The subject of a further assay is CXCL8. The assay can be described thus: RT-PCR CXCL8 mRNA in U−2 OS cells. Particulars: 24 h. How it is done:
(§1) Total RNA within cells was extracted by the RNAeasy™ Animal Long RNA Isolation Kit with Spin Column (Shanghai, Beyotime); the concentrations and OD260/OD280 and OD230/OD260 values were measured by NanoDrop. Five micrograms of RNA was used for reverse transcription; each sample was diluted to 16 μL, and 4 μL of synthesized premix solution (5×) was added, then the mixtures were placed in a 42 °C water bath for 10 min, then an 80 °C water bath for 10 min to deactivate reverse transcriptase. After reverse transcription, each sample was diluted to 140 μL. PCR amplification was carried out by the ABI700 real-time PCR system, and the amplification reaction was detected with a SYBR probe. After PCR, actin and GAPDH were used as internal references, and the relative standard curve method (2^−ΔΔcT) determined the relative expression of mRNA.

Another assay deals with phospho−FOXO1. The experiment in a line: Western blot phospho−FOXO1. How it is done: Figure 3 DS−1 inhibited the expression of transcription factor FOXO1 in U−2 OS cells. (A) U−2 OS cells were treated with DS−1 at 0, 3.125, 6.25, and 12.5 μM, and the changes in FOXO1 were analyzed by immunofluorescent staining, followed by confocal microscopy imaging. (B) U−2OS cells were treated with DS−1 at 0, 3.125, 6.25, and 12.5 μM, and FOXO1 and pFOXO1 were analyzed by Western blot; the changes were presented in histograms (C,D). (E) U−2 OS cells were treated with DS−1 at 6.25 μM for 0, 12, 24, and 48 h, then FOXO1 was analyzed by Western blot, and the changes are presented in the histogram (F). (G) The pFOXO1/FOXO1 value is shown in the histogram. […]
Sample preparation: U−2 OS cells seeded in 10 cm Petri dishes were collected and washed with ice-cold PBS and RIPA lysis buffer with PMAF; phosphatase inhibitor was added, and the tubes were placed on ice for 30 min and vortexed for 30 s at intervals of 10 min. […] The protein samples were placed on ice, and the concentration of each protein sample was measured by the BCA kit (Thermo). […]
Antibody staining: We blocked the membrane for 1 h at room temperature using 5% blocking solution, then incubated the membrane with appropriate dilutions of the primary antibody in the blocking solution overnight at 4 °C. […] Images were acquired using darkroom development techniques for chemiluminescence and analyzed by Image J.
On the technique in general: Immunoblotting shows a protein as a band on a membrane.

The next assay has as its system cyclin D1. The experiment in a line: RT-PCR cyclin D1 mRNA in U−2 OS cells. The conditions noted are these: 24 h. How it is done:
as §1

This is an account of results in PMC9231138, “Dihydrotanshinone I Enhances Cell Adhesion and Inhibits Cell Migration in Osteosarcoma U−2 OS Cells through CD44 and Chemokine Signaling” (Molecules, 2022).

Regarding `Cc1cccc2c3c(ccc12)C1=C(C(=O)C3=O)[C@@H](C)CO1` [DS−1, 15,16-Dihydrotanshinone I], the “number of genes downregulated (of 23,517 detected)” value with U−2 OS cells is listed as 4643 genes. Moreover, the “number of genes upregulated (of 23,517 detected)” value in the assay on U−2 OS cells was determined as 4104 genes. Moreover, the “pAKT, fold of the control group” value with pAKT (DS−1 5.0 µM) turned out to be 2.06 ± 0.08 fold; with pAKT (DS−1 7.5 µM) it was 2.10 ± 0.15 fold. Besides, the pAKT/AKT value result in the assay with pAKT (with the concentration of DS−1 (2.5, 5.0, 7.5 µM)) is recorded as “increased”. Moreover, the “CXCL8 mRNA, fold” value is reported as 1.49 ± 0.10 fold with CXCL8 (DS−1 2.5 µM), 3.34 ± 0.49 fold in the assay with CXCL8 (DS−1 5.0 µM) and 3.71 ± 0.53 fold with CXCL8 (DS−1 7.5 µM). The “phosphorylation of FOXO1 (pFOXO1/FOXO1 value)” value in the assay on phospho−FOXO1 (with increasing concentration of DS−1, Image J) is listed as “increased”. Further, the “phospho−FOXO1” value in the assay on phospho−FOXO1 (with the concentration of DS−1 (3.125, 6.25, 12.5 μM) and the time of treatment (6.25 μM, 12, 24, 48 h)) is on record as “reduced”. For the same compound, the “cyclin D1 mRNA, fold of the control group” value in the assay with cyclin D1 (first of three DS−1 doses (2.5 µM per Fig. 5 legend)) is reported as 0.27 ± 0.06 fold; in the assay with cyclin D1 (second of three DS−1 doses (5.0 µM per Fig. 5 legend)), 0.29 ± 0.06 fold; in the assay with cyclin D1 (third of three DS−1 doses (7.5 µM per Fig. 5 legend)) it was 0.20 ± 0.04 fold.
